# Measured values: ChEMBL document CHEMBL1154435, “Synthesis and anti-inflammatory activity evaluation of unsymmetrical selenides” (Eur J Med Chem, 2008)
# Experiments:
# Rattus norvegicus [1] = test: Antiinflammatory activity against cotton pellets-induced inflammation in Wistar rat assessed as wet weight of granuloma at 10 mg/kg, po after 7 days; assay type: functional
# Rattus norvegicus [2] = test: Antiinflammatory activity against cotton pellets-induced inflammation in Wistar rat assessed as dry weight of granuloma at 10 mg/kg, po after 7 days; assay type: functional
# Rattus norvegicus [3] = test: Antiinflammatory activity against cotton pellets-induced inflammation in Wistar rat assessed as final weight of granuloma at 10 mg/kg, po after 7 days; assay type: functional
# [4] = Acute toxicity in po dosed mouse assessed as death within 7 days; assay type: organism-based; conditions: in vivo
# Mus musculus [5] = test: Safety ratio for toxicity to antiinflammatory activity in po dosed mouse; assay type: functional
# Mus musculus [6] = test: Acute toxicity in mouse assessed as occurrence of ataxia and respiratory problems at 600 mg/kg, po within 7 days; assay type: organism-based; set-up: dose 600 mg/kg, route oral; conditions: in vivo, 168 h
# Rattus norvegicus [7] = test: Antiinflammatory activity against cotton pellets-induced inflammation in Wistar rat assessed as wet weight of granuloma at 5 mg/kg, po after 7 days; assay type: functional
# Rattus norvegicus [8] = test: Antiinflammatory activity against cotton pellets-induced inflammation in Wistar rat assessed as dry weight of granuloma at 5 mg/kg, po after 7 days; assay type: functional
# Rattus norvegicus [9] = test: Antiinflammatory activity against cotton pellets-induced inflammation in Wistar rat assessed as final weight of granuloma at 5 mg/kg, po after 7 days; assay type: functional
SMILES,Activity (Rattus norvegicus [1]) [g],Activity (Rattus norvegicus [2]) [g],Activity (Rattus norvegicus [3]) [mg],LD50 at 168 h [4] [mg/kg],Ratio (Mus musculus [5]),Activity (Mus musculus [6]),Activity (Rattus norvegicus [7]) [g],Activity (Rattus norvegicus [8]) [g],Activity (Rattus norvegicus [9]) [mg]
O=C(O)C[Se]c1ccccc1C(=O)O,0.378,0.085,33.8,> 600,>=60,,,,
C#CC[Se]c1ccccc1C(=O)O,0.353,0.081,30.9,600,>=60,Toxic,,,
C#CC[Se]c1ccc(C(=O)NC)cc1,0.447,0.096,41.3,> 600,>=60,,,,
CNC(=O)c1ccc([Se]C=C(C)C)cc1,0.369,0.087,33.2,600,>=60,Toxic,,,
CC(C)=C[Se]c1ccccc1C(=O)O,0.406,0.084,32.8,> 600,>=60,,,,
CNC(=O)c1ccc([Se]Cc2ccccc2)cc1,0.414,0.089,35.7,> 600,>=60,,,,
COc1ccc2c(c1)c(CC(=O)O)c(C)n2C(=O)c1ccc(Cl)cc1 [INDOMETHACIN],,,,33,3.3,,0.307,0.072,21.8
